Experimental data published in patent US8481725B2, “Cycloalkylcarbonylamino acid derivative and process for producing the same” (Seikagaku Corporation, priority 2006, dated 2013).
Starred links: 1 amine or outer side, 2 acyl side, 3 side chain; linkers in the order of their positions; H or OH if unused. Non-standard residues stand in square brackets, D forms with d. Residues, ends and D or L forms follow the SMILES beside them. *: point of attachment. Ac6c = NC1(C(=O)O)CCCCC1; Morpholide = C1CN(*)CCO1; Nle = CCCC[C@H](N)C(=O)O; Cbz = O=C(OCc1ccccc1)*; CO = O=C([*:1])[*:2]

How the values were obtained:
Format in all cases: biochemical
Human cathepsin L = molecular target: T1, Human cathepsin L (Homo sapiens, UniProt P07711); experiment: Measurement of cathepsin L inhibitory activity (fluorescent substrate Z-Phe-Arg-MCA); details: for IC50: pH 5.5, 30° C., 30 minutes; for L/K (ratio of IC50 cathepsin L to IC50 cathepsin K): selectivity ratio L/K
T1 construct: purchased Calbiochem Corp
T1 sequence (P07711 114-333): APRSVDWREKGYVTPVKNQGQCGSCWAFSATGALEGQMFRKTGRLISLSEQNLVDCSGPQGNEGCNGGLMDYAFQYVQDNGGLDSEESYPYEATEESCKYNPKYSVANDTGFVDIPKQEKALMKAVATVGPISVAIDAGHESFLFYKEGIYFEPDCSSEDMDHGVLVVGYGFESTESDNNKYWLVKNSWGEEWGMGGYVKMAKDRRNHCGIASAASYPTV
Procedure: (§1) Human cathepsin L (Calbiochem Corp.) was used for measurement. Activity was measured based on decomposition of the fluorescent substrate Z-Phe-Arg-MCA (Peptide Institute, Inc.) in compliance with the method of Barrett, et al.^3). Namely, the decomposition of […] Z-Phe-Arg-MCA by cathepsin L was measured in 100 mM sodium acetate, 5 mM EDTA, 4 mM urea, 8 mM cysteine and 0.005% Brij35 at pH 5.5. The reaction was carried out for 30 minutes at 30° C., and stopped by the addition of 2×10^−5 M Calpeptin. After stopping the reaction, fluorescent intensity was measured at an excitation wavelength of 355 nm and measurement wavelength of 460 nm. Inhibition of cathepsin L by the compounds was examined using the reaction system described above.

Human cathepsin B = molecular target: T2, Human cathepsin B (Homo sapiens, UniProt P07858); experiment: Measurement of cathepsin B inhibitory activity (fluorescent substrate Z-Arg-Arg-MCA); details: for IC50: pH 6.0, 30° C., 30 minutes; for B/K (ratio of IC50 cathepsin B to IC50 cathepsin K): selectivity ratio B/K
T2 construct: purchased Calbiochem Corp
Procedure: as §1, with “B” for “L”, “Z-Arg-Arg-MCA” for “Z-Phe-Arg-MCA”, “sodium/potassium phosphate, 1” for “sodium acetate, 5”, “EDTA,” for “EDTA, 4 mM urea,”, “6.0.” for “5.5.”

Cathepsin K = molecular target: T3, Cathepsin K (Oryctolagus cuniculus, UniProt P43236); experiment: Measurement of cathepsin K inhibitory activity (fluorescent substrate Z-Gly-Pro-Arg-MCA); details: pH 6.0, 37° C., 30 minutes
T3 construct: Active enzyme was produced by expressing cathepsin K in the form of a proenzyme; made in house; host or cells: Sf21 insect cells (baculovirus expression system)
T3 sequence (P43236 115-329): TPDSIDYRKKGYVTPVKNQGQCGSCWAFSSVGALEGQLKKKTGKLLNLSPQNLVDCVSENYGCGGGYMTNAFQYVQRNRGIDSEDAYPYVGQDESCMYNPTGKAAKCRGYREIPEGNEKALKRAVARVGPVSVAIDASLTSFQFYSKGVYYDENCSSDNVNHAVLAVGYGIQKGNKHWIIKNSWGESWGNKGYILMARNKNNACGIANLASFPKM
Procedure: Active enzyme was produced by expressing cathepsin K in the form of a proenzyme in a cell culture from a baculovirus expression system using Sf21 insect cells, followed by incubating for 1 hour at 40° C.^1). Cathepsin K activity was measured based on decomposition of the fluorescent substrate Z-Gly-Pro-Arg-MCA (Peptide Institute, Inc.) in compliance with the method of Aibe, et al.^2). Namely, the decomposition of […] Z-Gly-Pro-Arg-MCA by cathepsin K was measured in 100 mM sodium/potassium phosphate, 1 mM EDTA and 8 mM cysteine at pH 6.0. The reaction was carried out for 30 minutes at 37° C., and stopped by the addition of 2×10^−5 M Calpeptin. After stopping the reaction, fluorescent intensity was measured at an excitation wavelength of 355 nm and measurement wavelength of 460 nm. Inhibition of cathepsin K by the compounds was examined using the reaction system described above.

Row | SMILES | IC50 (Human cathepsin L) [nM] | L/K (ratio of IC50 cathepsin L to IC50 cathepsin K) (Human cathepsin L) | IC50 (Human cathepsin B) [nM] | B/K (ratio of IC50 cathepsin B to IC50 cathepsin K) (Human cathepsin B) | IC50 (Cathepsin K) [nM]
1 | CC(C)[C@@H](C=O)NC(=O)C1(NC(=O)OCc2ccccc2)CCCCC1 [Reference Example 189, N-[[1-[[(Phenylmethoxy)carbonyl]amino]cyclohexyl]carbonyl]-L-valinal] (Cbz-[Ac6c]-Val-aldehyde) | 680 | 400 | 390 | 230 | 1.7
2 | CCCC[C@@H](C=O)NC(=O)C1(NC(=O)OCc2ccccc2)CCCCC1 [Reference Example 190, N-[[1-[[(Phenylmethoxy)carbonyl]amino]cyclohexyl]carbonyl]-L-norleucinal] (Cbz-[Ac6c]-[Nle]-aldehyde) | 200 | 50 | 140 | 35 | 4
3 | CC(C)[C@@H](C=O)NC(=O)C1(NC(=O)c2ccco2)CCCCC1 [Reference Example 191, N-[[1-[(2-Furanylcarbonyl)amino]cyclohexyl]carbonyl]-L-valinal] | 200 | 370 | 47 | 87 | 0.54
4 | CCCC[C@@H](C=O)NC(=O)C1(NC(=O)N2CCOCC2)CCCCC1 [Reference Example 192, N-[[1-[(4-Morpholinylcarbonyl)amino]cyclohexyl]carbonyl]-L-norleucinal] ({Morpholide-CO}-[Ac6c]-[Nle]-aldehyde) | 470 | 21 | 260 | 12 | 22
5 | CC(C)C[C@H](NC(=O)OCc1ccccc1)C(=O)N[C@H](C=O)C(C)C [Reference Example 193, N—[N-[(Phenylmethoxy)carbonyl]-L-leucyl]-L-valinal] (Cbz-Leu-Val-aldehyde) | 140 | 74 | 110 | 58 | 1.9
6 | CCCC[C@@H](C=O)NC(=O)[C@H](CC(C)C)NC(=O)OCc1ccccc1 [Reference Example 194, N—[N-[(Phenylmethoxy)carbonyl]-L-leucyl]-L-norleucinal] | 53 | 15 | 40 | 11 | 3.5
7 | CCCC[C@@H](C=O)NC(=O)[C@H](CC(C)C)NC(=O)N1CCOCC1 [Reference Example 195, N—[N-(4-Morpholinylcarbonyl)-L-leucyl]-L-norleucinal] | 22 | 7.3 | 13 | 4.3 | 3
8 | CC(C)C[C@H](NC(=O)c1ccco1)C(=O)N[C@H](C=O)C(C)C [Reference Example 196, N—[N-(2-Furanylcarbonyl)-L-leucyl]-L-valinal] | 67 | 35 | 57 | 30 | 1.9
